In PMC5618191 (Toxins, 2017):

Test system: KB-3-1 cells
Assay: Western blot analysis of apoptosis proteins
Type: cell-based, human
Conditions: KB-3-1, 24 h
Experimental: 1. Supplementary Materials and Methods […]
1.3 Western Blot Analysis […]
according to standard procedures, separated by SDS-PAGE, and transferred to a polyvinylidene difluoride membrane for Western blotting as described previously. The following primary antibodies specific for the following targets were diluted 1:1000 in TBST/3% BSA (w/v): PARP, Bak, Bax, Bim, Bcl-xL (polyclonal, Cell Signaling Technology, Beverly, MA, USA), caspase 9, cl. caspase 9 (monoclonal, Cell Signaling Technology) and β-actin (monoclonal, Clone AC-15, Sigma-Aldrich).
Secondary horseradish peroxidase-labeled antibodies (goat anti-rabbit or anti-mouse, Santa Cruz Biotechnology, Dallas, Texas, TX, USA) were diluted 1:10,000 in TBST/1% BSA.
(black circles), human non-malignant keratinocytes HaCaT (open circles), murine colon carcinoma CT-26 (asterisks), human cervix carcinoma KB-3-1 (gray triangle) and human colon carcinoma SW480 cells (gray square) at higher density. Cells were grown to a 50-60% confluence and treated with the […]
The IC50 level is indicated by the dotted line. Mean values (± SD) of one representative experiment in triplicate are shown.
Figure S4. […]
Significant differences to untreated controls are marked by asterisks (***p<0.001). (c) Expression of PARP and caspase 9 and amount of cleaved (Cl.) PARP and cleaved Caspase 9, as well as protein expression of Bim, Bax, Bak and Bcl-xL in beauvericin-treated (24 h) and untreated cells were determined by Western Blotting. β-actin served as loading control. […]

beauvericin
Antiapoptotic Bcl-xL: reduced
Cleavage of PARP and caspase 9: induced
Proapoptotic Bcl-2 family members Bim and Bak: upregulation
